Assay results taken from BindingDB's records for doi:10.7270/Q2H130FK (Nmmlsc, 2007).
Where a name gives a salt, the structure may show the parent alone.

Biological target: T1, Integrin alpha-4 (Homo sapiens, UniProt P05556+P13612)
T1 sequence (P13612 whole entry): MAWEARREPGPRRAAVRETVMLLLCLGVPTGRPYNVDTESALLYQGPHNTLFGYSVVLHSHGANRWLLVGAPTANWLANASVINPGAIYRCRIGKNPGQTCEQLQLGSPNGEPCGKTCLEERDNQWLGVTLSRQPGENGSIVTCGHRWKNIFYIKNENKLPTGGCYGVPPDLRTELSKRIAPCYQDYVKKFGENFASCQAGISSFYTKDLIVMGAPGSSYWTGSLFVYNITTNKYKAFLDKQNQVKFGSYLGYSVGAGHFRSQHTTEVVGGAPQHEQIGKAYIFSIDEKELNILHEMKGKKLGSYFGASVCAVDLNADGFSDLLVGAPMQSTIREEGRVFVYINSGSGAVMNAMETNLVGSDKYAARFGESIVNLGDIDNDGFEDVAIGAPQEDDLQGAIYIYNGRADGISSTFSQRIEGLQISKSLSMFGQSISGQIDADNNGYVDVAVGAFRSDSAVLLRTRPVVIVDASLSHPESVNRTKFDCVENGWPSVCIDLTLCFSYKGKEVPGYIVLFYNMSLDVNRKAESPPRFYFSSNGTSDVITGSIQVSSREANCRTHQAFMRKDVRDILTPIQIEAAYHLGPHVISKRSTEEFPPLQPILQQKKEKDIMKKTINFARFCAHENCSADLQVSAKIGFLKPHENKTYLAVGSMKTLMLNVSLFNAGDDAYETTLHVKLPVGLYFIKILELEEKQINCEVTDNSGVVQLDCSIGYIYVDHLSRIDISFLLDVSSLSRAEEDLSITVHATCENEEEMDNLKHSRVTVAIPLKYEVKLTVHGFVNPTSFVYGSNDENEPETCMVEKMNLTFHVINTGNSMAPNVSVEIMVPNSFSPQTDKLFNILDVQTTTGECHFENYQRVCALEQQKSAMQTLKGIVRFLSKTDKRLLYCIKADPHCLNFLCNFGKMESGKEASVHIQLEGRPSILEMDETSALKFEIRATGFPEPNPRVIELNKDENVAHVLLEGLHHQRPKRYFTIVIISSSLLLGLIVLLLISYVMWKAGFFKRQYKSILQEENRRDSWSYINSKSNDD
Assay: inhibition of LDV ligand binding to VLA-4 – cell-based, LDV-FITC binding, flow cytometry, dose response (AID 702)

Compound	EC50
O=S1(=O)Nc2c(ccc3cccnc23)-c2ccccc21 [5H-quinolino[8,7-c][1,2]benzothiazine 6,6-dioxide]	19.9 µM
CCCOc1ccc(C(CC(=O)O)NC(=O)c2ccc3c(c2)OCO3)cc1 (centres undefined) [MLS000085916]	11.2 µM
COc1cccc2sc(Nc3nnc(-c4ccc(F)cc4)o3)nc12 [5-(4-fluorophenyl)-N-(4-methoxy-1,3-benzothiazol-2-yl)-1,3,4-oxadiazol-2-amine]	6.08 µM
COc1ccc(Nc2cc(C)nc3ccccc23)cc1 [(4-methoxyphenyl)-(2-methyl-4-quinolyl)amine;hydrochloride]	4.27 µM
NC(=O)c1cc(N)ccc1N1CCCC1 [5-Amino-2-pyrrolidin-1-yl-benzamide]	> 100 µM
COc1ccc(-c2nnc(Nc3nc4c(OC)cccc4s3)o2)cc1 [MLS000045458]	7.92 µM
COc1cccc2sc(Nc3nnc(-c4cccs4)o3)nc12 [MolPort-003-038-736]	3.27 µM
Cc1csc(NC(=O)CSc2nsc(SCC(=O)Nc3nc(C)cs3)c2C#N)n1 [2-[[4-cyano-3-[2-[(4-methyl-1,3-thiazol-2-yl)amino]-2-oxidanylidene-ethyl]sulfanyl-1,2-thiazol-5-yl]sulfanyl]-N-(4-methyl-1,3-thiazol-2-yl)ethanamide]	20.2 µM
COc1ccc(-c2nnc(Nc3nc4c(OC)cccc4s3)o2)c(OC)c1 [5-(2,4-dimethoxyphenyl)-N-(4-methoxy-1,3-benzothiazol-2-yl)-1,3,4-oxadiazol-2-amine]	2.84 µM
CCCCC1(C(=O)OCC)CC(CN2CCOCC2)OC1=O (centres undefined) [3-butyl-2-keto-5-(morpholinomethyl)tetrahydrofuran-3-carboxylic acid ethyl ester]	6.5 µM
COCCNC(=O)C(c1ccncc1)N(C(=O)Cn1nnc2ccccc21)c1ccc(OC)cc1 (centres undefined) [2-(N-[2-(1-benzotriazolyl)-1-oxoethyl]-4-methoxyanilino)-N-(2-methoxyethyl)-2-pyridin-4-ylacetamide]	> 100 µM
COc1ccc(OC)c(NC(=O)CCN2CCCC(C)C2)c1 (centres undefined) [MLS000070519]	14.1 µM
COc1ccc(C(=O)Oc2ccc(C(C)=O)cc2)c(OC)c1 [(4-acetylphenyl) 2,4-dimethoxybenzoate]	5.14 µM
COc1ccc(-c2coc3c(CN4CCCCC4)c(O)c(CN4CCCCC4)c(O)c3c2=O)cc1 [3-(4-methoxyphenyl)-5,7-bis(oxidanyl)-6,8-bis(piperidin-1-ylmethyl)chromen-4-one]	100 µM
COc1cccc(N2CCN(c3ncnc4c3[nH]c3ccc(F)cc34)CC2C)c1 (centres undefined) [8-fluoranyl-4-[4-(3-methoxyphenyl)-3-methyl-piperazin-1-yl]-5H-pyrimido[5,4-b]indole]	8.78 µM
Cc1ccccc1CS(=O)(=O)Cc1ccc(C(=O)NCc2ccccn2)o1 [5-[(2-methylbenzyl)sulfonylmethyl]-N-(2-pyridylmethyl)-2-furamide]	> 100 µM
O=S(=O)(Nc1cccc2ncccc12)c1cccs1 [MLS000057468]	11.4 µM

Compound	EC50
CCOC(=O)c1sc(Nc2nc3c(OC)cccc3s2)nc1C [SMR000027213]	33.9 µM
CCOC(=O)c1cnc(-n2nc(C)cc2C)nc1NC(C)c1ccccc1 (centres undefined) [2-(3,5-dimethyl-1-pyrazolyl)-4-(1-phenylethylamino)-5-pyrimidinecarboxylic acid ethyl ester]	100 µM
CC(N=O)C(=O)NCc1ccccn1 (centres undefined) [(2E)-2-(hydroxyimino)-N-(pyridin-2-ylmethyl)propanamide]	0.09 µM
COc1ccc(-n2ncc3c(N4CCCc5ccccc54)ncnc32)cc1 [1-[1-(4-methoxyphenyl)-1H-pyrazolo[3,4-d]pyrimidin-4-yl]-1,2,3,4-tetrahydroquinoline]	52.6 µM
O=c1c(CC[S+]([O-])c2ccccc2)c(O)n(-c2ccccc2)n1-c1ccccc1 (centres undefined) [1,2-Diphenyl-3,5-dioxo-4-(2-phenylsulfinylethyl)pyrazolidine]	17.3 µM
CCOc1ccc(-n2c(O)c(C=NCCN3CCNCC3)c(=O)[nH]c2=O)cc1 [SMR000057873]	5.13 µM
OC(CN1CCOCC1)CN(c1ccccc1)c1ccccc1 (centres undefined) [1-(4-morpholinyl)-3-(N-phenylanilino)-2-propanol;hydrochloride]	4.13 µM
CN1C(=S)SC(N(O)C(=O)Nc2ccccc2)C1(C)C (centres undefined) [1-hydroxy-3-phenyl-1-(3,4,4-trimethyl-2-sulfanylidene-1,3-thiazolidin-5-yl)urea]	31.8 µM
CCCCc1c(O)n(-c2ccccc2)n(-c2ccccc2)c1=O [3,5-Dioxo-1,2-diphenyl-4-n-butylpyrazolidine]	1.06 µM
Nc1nonc1C(=O)NCCN=Cc1cc(Cc2ccccc2)cc(Br)c1O [4-amino-N-[2-[[(E)-(3-benzyl-5-bromo-6-oxocyclohexa-2,4-dien-1-ylidene)methyl]amino]ethyl]-1,2,5-oxadiazole-3-carboxamide]	> 100 µM
CCOC(=O)c1c(C)oc2c1c1c(c3ccccc32)OCN(Cc2ccccn2)C1 [MLS000566323]	4.38 µM
COc1cccc2sc(Nc3nc(-c4ccccn4)cs3)nc12 [(4-methoxy-1,3-benzothiazol-2-yl)-[4-(2-pyridyl)thiazol-2-yl]amine]	6.78 µM
Cc1cc(=O)oc2c(CN3CCC(C)CC3)c(O)c(Cl)cc12 [6-chloranyl-4-methyl-8-[(4-methylpiperidin-1-yl)methyl]-7-oxidanyl-chromen-2-one]	4.6 µM
C#CCN(C)C(C)Cc1ccccc1 (centres undefined) [Deprenyl]	> 100 µM
CCOC(=O)N1CCC(NC(=O)CSCc2nc(-c3ccc(OC)c(OC)c3)oc2C)CC1 [4-[[2-[[2-(3,4-dimethoxyphenyl)-5-methyl-4-oxazolyl]methylthio]-1-oxoethyl]amino]-1-piperidinecarboxylic acid ethyl ester]	0.08 µM
Cc1ccc(C(=O)NCC(C)(C)O)cc1 [4-methyl-N-(2-methyl-2-oxidanyl-propyl)benzamide]	2.34 µM
CCOc1ccc2[nH]c(=O)c(CN(CC3COCCO3)C(=O)C3CC3)cc2c1 (centres undefined) [MLS000031787]	45.1 µM
